In brackets after ≈: the same amount, converted by molar mass. Where two headings read alike, the source gives them in different places. Marks after values point to notes of the source that are not given here.
What was measured:
HeLa cells (KB3.1) = settings: cited from earlier work
Glioblastoma cells = assay: Influence on the cell cycle, continuous flow cytometry, glioblastoma cells; assay type: cell-based; settings: 20 nM, 48 h incubation
Method: (§1) Glioblastoma cells and HepG2 cells (liver carcinoma cells) were in each case incubated for 48 h without the substance 1 according to the invention and in nutrient medium containing various concentrations of the substance 1 according to the invention. The cells were harvested and measured by continuous flow cytometry.
(§2) Bookmark not defined. to […]. for glioblastoma cells and […]. to […]. for HepG2 cells, in each case in plot form. In each case the DNA content is indicated on the X axis and the cell count is indicated on the Y axis. Bookmark not defined. to […]. were obtained in each case with 0 nM, 10 nM and 20 nM, respectively, of the preferred substance 1 according to the invention in the culture medium; the results shown in Figures […]. to […]. were obtained with 0 nM, 2 nM and 5 nM, respectively, of the preferred substance 1 according to the invention in the culture medium.
(§3) It can be seen that for both cell lines tested the absolute number and the number of cells in the S and in the G2 phase decreases with increasing concentration of substance 1. […] The preferred substance 1 according to the invention thus arrests the cell cycle in the G1 phase at the dosage suitable for the particular cell type.

[1] = tested on: HepG2 cells (liver carcinoma cells); assay: Influence on the cell cycle, continuous flow cytometry, HepG2 cells; assay type: cell-based; settings: 5 nM, 48 h incubation
Method: as §1, §2, §3

[2] = tested on: glioblastoma cells growing on a conventional carrier; assay: Shape and carrier adhesion of glioblastoma cells; assay type: cell-based; settings: 50 nM
Description: In addition, the shape of glioblastoma cells growing on a conventional carrier as a function of the concentration of the substance 1 according to the invention was investigated (no figure). In the absence of substance 1 the cells have their typical dendritic shape and adhere to (sic) the carrier surface.

[3] = tested on: HM02 (gastroadenocarcinoma); assay: cells; assay type: cell-based; settings: for CC50: read-out: LC50; for TGI: complete inhibition of cell growth
Method: (§4) The tables below show the influence of the substances 1, 36 and 37 according to the invention on the growth of tumor cells, specifically the growth of the cell lines HM02 (gastroadenocarcinoma), HepG2 (liver carcinoma) and MCF 7 (mammary carcinoma).
(§5) The studies were carried out in accordance with the NCI guidelines (Grever et al., Seminars in Oncology 19 (1992), 622-638). The cells were cultured in 96-well microtitre plates in RPMI 1640 medium with 10% FCS (foetal calf serum). 24 h after dissemination of the cells, the substances 1 and 36 according to the invention dissolved in methanol were added and the cells were incubated for a further 48 h. The cell count was then determined.
(§6) GI50: denotes the concentration that effects a semi-maximum inhibition of the cell growth
(§7) TGI: denotes the concentration that effects complete inhibition of the cell growth

HepG2 (liver carcinoma) = assay: cells; assay type: cell-based; settings: for TGI: complete inhibition of cell growth; for CC50 / GI50 / inhibition at 0.5 µg/mL: Homo sapiens; for CC50: read-out: LC50; for inhibition at 0.5 µg/mL: HEP-G2, at 500 ng/ml, read-out: growth inhibition
Method: as §4, §5, §6, §7

[4] = tested on: MCF 7 (mammary carcinoma); assay: cells; assay type: cell-based; settings: for CC50 / GI50: Homo sapiens; for CC50: read-out: LC50; for TGI: complete inhibition of cell growth
Method: as §4, §5, §6, §7

[5] = MCF7, MCF 7, 48 h incubation, semi-maximum inhibition of cell growth, read-out: GI50

SMILES | IC50, inhibition of growth of HeLa cells (KB3.1) (HeLa cells (KB3.1)) [ng/mL] | cell cycle phase distribution (G1 arrest) (Glioblastoma cells) | cell cycle phase distribution (G1 arrest) [1] | cell shape and adhesion to the carrier surface [2] | CC50 ([3]; HM02, 48 h) [ng/mL] | TGI ([3]; HM02, 48 h incubation) | GI50 ([3]; HM02, 48 h incubation, semi-maximum inhibition of cell growth, read-out: GI50) [ng/mL] | TGI (HepG2 (liver carcinoma); HEP-G2, 48 h incubation) | CC50 (HepG2 (liver carcinoma); HepG2, 48 h) [ng/mL] | GI50 (HepG2 (liver carcinoma); HepG2, HEP-G2, 48 h incubation, semi-maximum inhibition of cell growth, read-out: GI50) [ng/mL] | inhibition at 0.5 µg/mL (HepG2 (liver carcinoma); HepG2) [%] | CC50 ([4]; MCF7, 48 h) [ng/mL] | GI50 [4, 5] [ng/mL] | TGI ([4]; MCF 7, 48 h incubation) | GI50 ([3]; HM02, 48 h) [ng/mL] | GI50 (HepG2 (liver carcinoma); HepG2, 48 h) [ng/mL] | GI50 ([4]; MCF7, 48 h) [ng/mL] | inhibition at 0.1 µg/mL ([3]; HM02, read-out: growth inhibition) [%]
C/C=C/[C@@H]1O[C@H]([C@H](O)/C=C/C=C(\C)C[C@@H](C)/C=C(C)\C=C\[C@H]2CC=CC(=O)O2)C[C@@H](O)[C@@H]1C [Ratjadon, ratjadon] | 0.05 | – | – | – | – | – | – | – | – | – | – | – | – | – | – | – | – | –
C/C=C/[C@H]1O[C@@H]([C@@H](O)/C=C/C=C(\C)C[C@@H](C)/C=C(C)\C=C\[C@H]2CC=CC(=O)O2)C[C@H](O)[C@H]1C [Substance 1] | – | virtually all cells tested are in the G1 phase | virtually all cells tested are in the G1 phase | the cells have largely lost their dendritic shape and detach easily from the carrier surface | 250 (≈ 0.547 µM) | 24 ng/mL (≈ 0.0526 µM) | < 5 | 500^b ng/ml | > 500 | 13 (≈ 0.0285 µM) | 80 | < 500 | 16 (≈ 0.035 µM) | >500^b ng/ml | – | – | – | –
CC(=C/[C@H](C)C/C(C)=C/C=C/[C@H](O)[C@H]1CCCCO1)/C=C/[C@H]1CC=CC(=O)O1 [Substance 36] | – | – | – | – | > 500 | 140 ng/mL (≈ 0.362 µM) | – | >500^c ng/ml | > 500 | – | 60 | > 500 | – | >500^c ng/ml | 5 (≈ 0.0129 µM) | 58 (≈ 0.15 µM) | 100 (≈ 0.259 µM) | –
C/C=C/[C@H]1O[C@@H]([C@@H](O)/C=C/C=C(\C)C[C@@H](C)/C=C(C)\C=C\[C@@H]2CC=CC(=O)O2)C[C@H](O)[C@H]1C [Substance 37] | – | – | – | – | > 100 | >100^a ng/ml | – | >100 ng/mL | > 100 | – | – | > 100 | 25 (≈ 0.0547 µM) | >100 ng/mL | 17 (≈ 0.0372 µM) | 85 (≈ 0.186 µM) | – | 90

Source: patent US20040092581A1, “Ratjadone derivatives for inhibiting cell growth” (priority 2001, published 2004)
